Patent US10710980B2, “Aminopyridine derivatives and their use as selective ALK-2 inhibitors” (priority 2016, dated 2020)

Experiments:
[1] = molecular target: T1, wild-type ALK2 (aa172-499) (Homo sapiens (Human), UniProt Q04771); assay: ADPGlo biochemical autophosphorylation assay, ALK2; conditions: 15 μm ATP, 60 min at 32° C.
ALK3 (aa198-525) = ALK3 (aa198-525) (Homo sapiens (Human), UniProt P36894); assay: ADPGlo biochemical autophosphorylation assay, ALK3; conditions: 15 μm ATP, 60 min at 32° C.
ALK3 (aa198-525), sequence (P36894 198-525): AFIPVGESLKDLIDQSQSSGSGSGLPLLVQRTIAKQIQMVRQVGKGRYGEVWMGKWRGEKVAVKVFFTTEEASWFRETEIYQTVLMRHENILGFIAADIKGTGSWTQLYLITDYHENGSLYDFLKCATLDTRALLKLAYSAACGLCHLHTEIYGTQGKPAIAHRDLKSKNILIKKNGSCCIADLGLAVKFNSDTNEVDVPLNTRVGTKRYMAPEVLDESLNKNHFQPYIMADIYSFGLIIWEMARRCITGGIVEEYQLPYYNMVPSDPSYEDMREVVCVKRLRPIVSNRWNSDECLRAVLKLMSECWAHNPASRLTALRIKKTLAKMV

[2] = molecular target: T1, wild-type ALK2 (aa172-499); assay: Caliper biochemical peptide phosphorylation assay, ALK2; conditions: 15 μm ATP, 60 min at 30° C.; read-out: ALK2 EPK (IC50)
ALK1 (aa166-493) = ALK1 (aa166-493) (Homo sapiens (Human), UniProt P37023); assay: Caliper biochemical peptide phosphorylation assay, ALK1; conditions: 15 μm ATP, 60 min at 30° C.; read-out: ALK1 EPK (IC50)
ALK1 (aa166-493), sequence (P37023 166-493): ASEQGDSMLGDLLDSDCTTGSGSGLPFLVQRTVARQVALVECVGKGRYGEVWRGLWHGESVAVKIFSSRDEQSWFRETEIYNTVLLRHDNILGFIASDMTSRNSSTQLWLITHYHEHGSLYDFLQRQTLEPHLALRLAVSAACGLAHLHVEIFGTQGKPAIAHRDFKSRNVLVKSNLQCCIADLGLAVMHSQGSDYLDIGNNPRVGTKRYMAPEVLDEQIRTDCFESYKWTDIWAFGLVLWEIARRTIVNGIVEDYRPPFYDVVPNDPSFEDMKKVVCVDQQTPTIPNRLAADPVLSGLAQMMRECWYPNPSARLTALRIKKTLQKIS

ALK5 (aa162-503) = ALK5 (aa162-503) (Homo sapiens (Human), UniProt P36897); assay: Caliper biochemical peptide phosphorylation assay, ALK5; conditions: 15 μm ATP, 60 min at 30° C.; read-out: ALK5 EPK (IC50)
ALK5 (aa162-503), sequence (P36897 162-503): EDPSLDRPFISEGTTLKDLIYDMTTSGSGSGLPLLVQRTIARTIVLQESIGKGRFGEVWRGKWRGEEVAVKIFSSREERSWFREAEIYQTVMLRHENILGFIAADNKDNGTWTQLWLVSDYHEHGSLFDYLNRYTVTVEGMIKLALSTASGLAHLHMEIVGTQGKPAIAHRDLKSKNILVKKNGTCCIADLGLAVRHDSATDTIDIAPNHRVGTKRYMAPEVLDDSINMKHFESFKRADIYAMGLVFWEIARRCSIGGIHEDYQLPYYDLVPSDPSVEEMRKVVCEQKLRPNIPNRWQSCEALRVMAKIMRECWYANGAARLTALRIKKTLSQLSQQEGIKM

ALK6 (aa168-495) = ALK6 (aa168-495) (Homo sapiens (Human), UniProt O00238); assay: Caliper biochemical peptide phosphorylation assay, ALK6; conditions: 15 μm ATP, 60 min at 30° C.; read-out: ALK6 EPK (IC50)
ALK6 (aa168-495), sequence (O00238 168-495): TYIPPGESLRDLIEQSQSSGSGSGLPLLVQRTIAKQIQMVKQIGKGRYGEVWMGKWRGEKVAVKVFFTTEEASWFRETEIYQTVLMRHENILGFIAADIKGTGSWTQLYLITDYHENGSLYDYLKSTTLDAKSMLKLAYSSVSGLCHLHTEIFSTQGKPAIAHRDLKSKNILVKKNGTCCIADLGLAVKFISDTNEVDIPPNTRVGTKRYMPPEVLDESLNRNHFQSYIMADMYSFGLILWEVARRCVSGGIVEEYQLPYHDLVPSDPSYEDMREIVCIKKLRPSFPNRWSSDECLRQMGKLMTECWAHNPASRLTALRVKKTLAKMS

[3] = system: BMP response element (BRE) luciferase reporter in HuH7 cells, BMP6 stimulated; assay: BMP signaling reporter gene assay; type: cell-based; conditions: Homo sapiens, Huh-7; HuH7 BRE-luciferase, BMP6 100 ng/ml, 5 hours; read-out: MSD BMP RGA IC50

T1 sequence (Q04771 172-499): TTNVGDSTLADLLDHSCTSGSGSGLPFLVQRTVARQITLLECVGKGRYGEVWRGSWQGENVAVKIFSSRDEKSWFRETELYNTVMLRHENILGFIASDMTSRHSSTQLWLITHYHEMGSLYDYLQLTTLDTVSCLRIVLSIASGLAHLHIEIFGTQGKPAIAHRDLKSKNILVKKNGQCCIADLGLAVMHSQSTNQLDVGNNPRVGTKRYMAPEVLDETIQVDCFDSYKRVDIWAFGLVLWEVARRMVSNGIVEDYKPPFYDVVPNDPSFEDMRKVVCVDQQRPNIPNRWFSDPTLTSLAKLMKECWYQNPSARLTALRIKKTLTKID

| SMILES | IC50 [1] [nM] | IC50 (ALK3 (aa198-525)) [nM] | IC50 [2] [nM] | IC50 (ALK1 (aa166-493)) [nM] | IC50 (ALK5 (aa162-503)) [nM] | IC50 (ALK6 (aa168-495)) [nM] | IC50 [3] [nM] |
| --- | --- | --- | --- | --- | --- | --- | --- |
| CS(=O)(=O)N1CCC(N2C[C@H]3C[C@@]3(c3ccc(-c4cnc(N)c(C(=O)N[C@H]5CC[C@H](O)CC5)c4)cc3)C2)CC1 [Example 1, 2-amino-N-((1r,4R)-4-hydroxycyclohexyl)-5-(4-((1R,5S)-3-(1-(methylsulfonyl)piperidin-4-yl)-3-azabicyclo[3.1.0]hexan-1-yl)phenyl)nicotinamide] | 5 | 310 | 9 | 75 | 560 | 740 | 76 |
| CC(C)N1C[C@H]2C[C@@]2(c2ccc(-c3cnc(N)c(C(=O)N[C@H]4CC[C@H](O)CC4)c3)cc2)C1 [Example 2, 2-amino-N-((1r,4R)-4-hydroxycyclohexyl)-5-(4-((1R,5S)-3-isopropyl-3-azabicyclo[3.1.0]hexan-1-yl)phenyl)nicotinamide] | 12 | 1770 | 11 | 93 | 2170 | 2500 | 21 |
| C[C@H](c1ccc(-c2cnc(N)c(C(=O)N[C@H]3CC[C@H](O)CC3)c2)cc1)N1CC2(COC2)C1 [Example 3, 5-(4-((R)-1-(2-oxa-6-azaspiro[3.3]heptan-6-yl)ethyl)phenyl)-2-amino-N-((1r,4R)-4-hydroxycyclohexyl)nicotinamide] | 12 | 1050 | 11 | 136 | 2130 | 1730 | 62 |
| Nc1ncc(-c2ccc([C@@]34C[C@@H]3CN(C(CF)CF)C4)cc2)cc1C(=O)N[C@H]1CC[C@H](O)CC1 [Example 6, 2-amino-5-(4-((1R,5S)-3-(1,3-difluoropropan-2-yl)-3-azabicyclo[3.1.0]hexan-1-yl)phenyl)-N-((1r,4R)-4-hydroxycyclohexyl)nicotinamide] | 18 | 940 | 15 | 220 | 10000 | 5200 | 870 |
| COCCN1C[C@@H]2C[C@]2(c2ccc(-c3cnc(N)c(C(=O)NC45CCC(O)(CC4)CC5)c3)cc2)C1 [Example 7, 2-amino-N-(4-hydroxybicyclo[2.2.2]octan-1-yl)-5-(4-((1S,5R)-3-(2-methoxyethyl)-3-azabicyclo[3.1.0]hexan-1-yl)phenyl)nicotinamide] | 12 | 875 | 12 | 195 | 5450 | 2400 | 51 |
| CC(C)N1CCN(c2ccc(-c3cnc(N)c(C(=O)N[C@H]4CC[C@H](O)CC4)c3)c(F)c2)CC1 [Example 8, 2-amino-5-(2-fluoro-4-(4-isopropylpiperazin-1-yl)phenyl)-N-((1r,4r)-4-hydroxycyclohexyl)nicotinamide] | 13 | 1900 | 12 | 220 | 4000 | 5000 | 69 |
| Nc1ncc(-c2ccc([C@@]34C[C@@H]3CN(CCN3CCOCC3)C4)cc2)cc1C(=O)N[C@H]1CC[C@H](O)CC1 [Example 10, 2-amino-N-((1r,4R)-4-hydroxycyclohexyl)-5-(4-((1R,5S)-3-(2-morpholinoethyl)-3-azabicyclo[3.1.0]hexan-1-yl)phenyl)nicotinamide] | 11 | 1400 | 11 | 89 | 2600 | 2500 | 61 |
| Nc1ncc(-c2ccc([C@@]34C[C@@H]3CN(CCN3CCOCC3)C4)cc2)cc1C(=O)NC12CCC(O)(CC1)CC2 [Example 15, 2-amino-N-(4-hydroxybicyclo[2.2.2]octan-1-yl)-5-(4-((1R,5S)-3-(2-morpholinoethyl)-3-azabicyclo[3.1.0]hexan-1-yl)phenyl)nicotinamide] | 29 | 967 | 20 | 370 | 3770 | 2230 | 74 |
| Nc1ncc(-c2ccc([C@]34C[C@H]3CN(C3CCOCC3)C4)cc2)cc1C(=O)N[C@H]1CC[C@H](O)CC1 [Example 33] | 10 | – | 20 | 220 | – | 2000 | 26 |
| C[C@@H]1CCCN1Cc1ccc(-c2cnc(N)c(C(=O)N[C@H]3CC[C@](C)(O)CC3)c2)cc1F [Example 46, 2-amino-5-(3-fluoro-4-(((R)-2-methylpyrrolidin-1-yl)methyl)phenyl)-N-((1r,4R)-4-hydroxy-4-methylcyclohexyl)nicotinamide] | 24 | 14600 | 25 | – | 10000 | 10000 | – |

Other lines, results leading:

| IC50 [1] [nM] | IC50 (ALK3 (aa198-525)) [nM] | IC50 [2] [nM] | IC50 (ALK1 (aa166-493)) [nM] | IC50 (ALK5 (aa162-503)) [nM] | IC50 (ALK6 (aa168-495)) [nM] | IC50 [3] [nM] | SMILES |
| --- | --- | --- | --- | --- | --- | --- | --- |
| 5 | 830 | 13 | 175 | 2450 | 1850 | 108 | C[C@@H](c1ccc(-c2cnc(N)c(C(=O)N[C@H]3CC[C@H](O)CC3)c2)cc1)N1CC2(COC2)C1 [Example 4, 5-(4-((S)-1-(2-oxa-6-azaspiro[3.3]heptan-6-yl)ethyl)phenyl)-2-amino-N-((1r,4R)-4-hydroxycyclohexyl)nicotinamide] |
| 7 | 1100 | 10 | 81 | 2200 | 2500 | 120 | Nc1ncc(-c2ccc([C@]34C[C@H]3CN(CCCN3CCOCC3)C4)cc2)cc1C(=O)N[C@H]1CC[C@H](O)CC1 [Example 5, 2-amino-N-((1r,4S)-4-hydroxycyclohexyl)-5-(4-((1S,5R)-3-(3-morpholinopropyl)-3-azabicyclo[3.1.0]hexan-1-yl)phenyl)nicotinamide] |
| 11 | 1600 | 11 | 127 | 3130 | 3130 | 43 | CC(C)N1C[C@@H]2C[C@]2(c2ccc(-c3cnc(N)c(C(=O)N[C@H]4CC[C@H](O)CC4)c3)cc2)C1 [Example 9, 2-amino-N-((1r,4S)-4-hydroxycyclohexyl)-5-(4-((1S,5R)-3-isopropyl-3-azabicyclo[3.1.0]hexan-1-yl)phenyl)nicotinamide] |
| 9 | 1100 | 12 | 150 | 2400 | 3900 | 51 | Nc1ncc(-c2ccc([C@]34C[C@H]3CN(CCF)C4)cc2)cc1C(=O)N[C@H]1CC[C@H](O)CC1 [Example 11, 2-amino-5-(4-((1S,5R)-3-(2-fluoroethyl)-3-azabicyclo[3.1.0]hexan-1-yl)phenyl)-N-((1r,4S)-4-hydroxycyclohexyl)nicotinamide] |
| 8 | 1400 | 13 | 140 | 3100 | 3000 | 78 | Nc1ncc(-c2ccc([C@]34C[C@H]3CN(CCN3CCOCC3)C4)cc2)cc1C(=O)N[C@H]1CC[C@H](O)CC1 [Example 13, 2-amino-N-((1r,4S)-4-hydroxycyclohexyl)-5-(4-((1S,5R)-3-(2-morpholinoethyl)-3-azabicyclo[3.1.0]hexan-1-yl)phenyl)nicotinamide] |
